Measured values taken from PMC11597089, “Kratom Alkaloids: A Blood–Brain Barrier Specific Membrane Permeability Assay-Guided Isolation and Cyclodextrin Complexation Study” (Molecules, 2024).

Experiments:
Type in all cases: physicochemical
[1] = ACE complex stability, Sualfadex; settings: hexakis-(6-deoxy-6-(2-carboxyethyl)thio)-α-CD, 30 mM phosphate buffer pH 7.4, 25 °C
Method: (§1) To investigate the CD complexation behavior of the four kratom alkaloids, we aimed to develop an ACE method for a systematic comparative study. […] To ensure sufficient buffer capacity and to avoid excessive current and Joule heat generation, the buffer concentration was set to 30 mM, and the applied voltage was 15 kV.
(§2) The ACE experiments were performed by using Agilent 7100 and HP^3DCE instruments (Agilent Technologies, Waldbronn, Germany). Untreated fused silica capillaries (total length of 48.5 cm, effective length of 40 cm, inner diameter of 50 μm) were purchased from Agilent Technologies. The new capillaries were conditioned with a 1 M NaOH wash for 1 h, followed by a 30 min wash each with 0.1 M NaOH and purified water. Prior to all runs, the capillary was preconditioned by rinsing with background electrolyte for 3 min. During the measurements, 30 mM phosphate buffer at pH 7.4 (30 mM Na2HPO4-NaOH) was used. The background electrolyte contained CDs at various concentrations. Stock solutions of the studied kratom alkaloids (mitragynine, paynantheine, speciogynine, speciociliatine) were prepared separately in methanol (1 mg/mL), and, right before the measurements, appropriate dilutions with purified water were used to prepare the sample solutions, applying 0.1% DMSO as the electroosmotic flow (EOF) marker. The samples were injected hydrodynamically at 40 mbar for 3 s. The positive polarity voltage was set to 15 kV, and the capillary was set to 25 °C. The electropherograms were recorded at four wavelengths (200 nm, 210 nm, 215 nm, and 220 nm), and the data were evaluated at 215 nm. In each case, three parallel measurements were performed. The measurements were evaluated using Origin and CEval software (v. 0.6i3).
(§3) In order to determine the complex stability constants that characterized the strength of the complexes, the first step was to determine the effective mobility of the analyte at specific CD concentrations. Triangular peaks caused by electromigration dispersion are often observed in ACE measurements.
(§4) Assuming a 1:1 complexation ratio and that the equilibrium CD concentration is almost equal to the total CD concentration, a relationship between the effective mobility relative to the EOF and the complex stability constant can be described by Function (4) (4) μeff=μA+μACDKstabCD/1+KstabCD where µeff is the effective mobility of the analyte, µA and µACD are the free and complexed analyte mobilities, [CD] is the concentration of the selector, and Kstab is the complex stability constant.
(§5) In order to calculate the exact, apparent, averaged complex stability constant values, viscosity correction and ionic strength correction were used.

[2] = ACE complex stability, HMDiSu-β-CD; settings: heptakis-(2-O-methyl, 3,6-O-disulfo)-β-CD, 30 mM phosphate buffer pH 7.4, 25 °C
Method: as §1, §2, §3, §4, §5

[3] = ACE complex stability, CM-β-CD; settings: carboxymethylated-β-CD DS~3, 30 mM phosphate buffer pH 7.4, 25 °C
Method: as §1, §2, §3, §4, §5

[4] = ACE complex stability, MePYR-β-CD; settings: mono-6^A-(N-methyl-pyrrolidine)-β-CD, positively charged, 30 mM phosphate buffer pH 7.4, 25 °C
Method: as §1, §2, §3, §4, §5

[5] = ACE complex stability, HP-β-CD; settings: hydroxypropylated-β-CD DS~4.5, 30 mM phosphate buffer pH 7.4, 25 °C
Method: as §1, §2
(§6) In order to determine the complex stability constants that characterized the strength of the complexes, the first step was to determine the effective mobility of the analyte at specific CD concentrations. Triangular peaks caused by electromigration dispersion are often observed in ACE measurements. […]

[6] = ACE complex stability, HDMS-β-CD; settings: heptakis-(2,3-O-dimethyl, 6-O-sulfo)-β-CD, 30 mM phosphate buffer pH 7.4, 25 °C
Method: as §1, §2, §3, §4, §5

[7] = ACE complex stability, CE-β-CD; settings: carboxyethylated-β-CD DS~3, 30 mM phosphate buffer pH 7.4, 25 °C
Method: as §1, §2, §3, §4, §5

[8] = ACE complex stability, RAME-β-CD; settings: randomly methylated-β-CD DS~12, 30 mM phosphate buffer pH 7.4, 25 °C
Method: as §1, §2, §3, §4, §5

[9] = ACE complex stability, α-CD; settings: 30 mM phosphate buffer pH 7.4, 25 °C, 15 kV, 215 nm
Method: as §1, §2, §3, §4, §5

[10] = ACE complex stability, HP-γ-CD; settings: hydroxypropylated-γ-CD DS~3, 30 mM phosphate buffer pH 7.4, 25 °C
Method: as §1, §2, §6

[11] = ACE complex stability, SBE-β-CD DS~4; settings: sulfobutyl-ether-β-CD DS~4, 30 mM phosphate buffer pH 7.4, 25 °C
Method: as §1, §2, §3, §4, §5

[12] = ACE complex stability, PIP-β-CD; settings: 6-monodeoxy-6-piperidine-β-CD, positively charged, 30 mM phosphate buffer pH 7.4, 25 °C
Method: as §1, §2, §3, §4, §5

[13] = ACE complex stability, Phos-β-CD; settings: phosphated-β-CD DS~2-6, 30 mM phosphate buffer pH 7.4, 25 °C
Method: as §1, §2, §3, §4, §5

[14] = ACE complex stability, CM-γ-CD; settings: carboxymethylated-γ-CD DS~4, 30 mM phosphate buffer pH 7.4, 25 °C
Method: as §1, §2, §3, §4, §5

[15] = ACE complex stability, MePIP-β-CD; settings: mono-6^A-(N-methyl-piperidine)-β-CD, positively charged, 30 mM phosphate buffer pH 7.4, 25 °C
Method: as §1, §2, §3, §4, §5

[16] = ACE complex stability, DIME-β-CD; settings: dimethylated-β-CD DS~14, 30 mM phosphate buffer pH 7.4, 25 °C
Method: as §1, §2, §6

[17] = ACE complex stability, PYR-β-CD; settings: 6-monodeoxy-6-pyrrolidine-β-CD, positively charged, 30 mM phosphate buffer pH 7.4, 25 °C
Method: as §1, §2, §3, §4, §5

Row | Compound | complex stability constant (Kstab) with Sualfadex [1] | complex stability constant (Kstab) with HMDiSu-β-CD [2] | complex stability constant (Kstab) with CM-β-CD [3] | complex stability constant (Kstab) with MePYR-β-CD [4] | complex stability constant (Kstab) with HP-β-CD [5] | complex stability constant (Kstab) with HDMS-β-CD [6] | complex stability constant (Kstab) with CE-β-CD [7] | complex stability constant (Kstab) with RAME-β-CD [8] | complex stability constant (Kstab) with α-CD [9] | complex stability constant (Kstab) with HP-γ-CD [10] | complex stability constant (Kstab) with SBE-β-CD DS~4 [11] | complex stability constant (Kstab) with PIP-β-CD [12] | complex stability constant (Kstab) with Phos-β-CD [13] | complex stability constant (Kstab) with CM-γ-CD [14] | complex stability constant (Kstab) with MePIP-β-CD [15] | complex stability constant (Kstab) with DIME-β-CD [16] | complex stability constant (Kstab) with PYR-β-CD [17]
1 | CC[C@@H]1CN2CCc3c([nH]c4cccc(OC)c34)[C@H]2C[C@@H]1/C(=C\OC)C(=O)OC [Speciociliatine, speciociliatine] | 250 ± 45 M⁻¹ | 100 ± 1 M⁻¹ | 230 ± 20 M⁻¹ | < 10 M⁻¹ | 30 ± 3 M⁻¹ | 105 ± 12 M⁻¹ | 160 ± 10 M⁻¹ | 20 ± 2 M⁻¹ | 22 ± 3 M⁻¹ | 220 ± 25 M⁻¹ | 670 ± 60 M⁻¹ | < 10 M⁻¹ | 215 ± 15 M⁻¹ | 120 ± 12 M⁻¹ | < 10 M⁻¹ | 100 ± 6 M⁻¹ | < 10 M⁻¹
2 | C=C[C@H]1CN2CCc3c([nH]c4cccc(OC)c34)[C@@H]2C[C@@H]1/C(=C\OC)C(=O)OC [Paynantheine, paynantheine] | 80 ± 15 M⁻¹ | 350 ± 10 M⁻¹ | 185 ± 15 M⁻¹ | < 10 M⁻¹ | 75 ± 5 M⁻¹ | 135 ± 14 M⁻¹ | 625 ± 40 M⁻¹ | 170 ± 30 M⁻¹ | 20 ± 2 M⁻¹ | 325 ± 50 M⁻¹ | 830 ± 50 M⁻¹ | < 10 M⁻¹ | 335 ± 30 M⁻¹ | 180 ± 20 M⁻¹ | < 10 M⁻¹ | 325 ± 30 M⁻¹ | < 10 M⁻¹
3 | CC[C@H]1CN2CCc3c([nH]c4cccc(OC)c34)[C@@H]2C[C@@H]1/C(=C\OC)C(=O)OC [Speciogynine, speciogynine] | 75 ± 20 M⁻¹ | 530 ± 10 M⁻¹ | 170 ± 15 M⁻¹ | < 10 M⁻¹ |  | 30 ± 3 M⁻¹ | 375 ± 25 M⁻¹ | 40 ± 1 M⁻¹ | 23 ± 5 M⁻¹ |  | 610 ± 60 M⁻¹ | < 10 M⁻¹ | 420 ± 30 M⁻¹ | 140 ± 12 M⁻¹ | < 10 M⁻¹ |  | < 10 M⁻¹
4 | mitragynine | 200 ± 25 M⁻¹ | 230 ± 25 M⁻¹ | 215 ± 20 M⁻¹ | < 10 M⁻¹ | 35 ± 2 M⁻¹ | 175 ± 7 M⁻¹ | 210 ± 20 M⁻¹ | 95 ± 9 M⁻¹ | 25 ± 2 M⁻¹ | 230 ± 35 M⁻¹ | 550 ± 35 M⁻¹ | < 10 M⁻¹ | 290 ± 30 M⁻¹ | 200 ± 10 M⁻¹ | < 10 M⁻¹ | 150 ± 15 M⁻¹ | < 10 M⁻¹
